In patent US11242335B2, “Fluorine-substituted indazole compounds and uses thereof” (SUNSHINE LAKE PHARMA CO., LTD., priority 2017, dated 2022):

Key:
[1] = target: T1, soluble guanylate cyclase (sGC) expressed by CHO-K1-Rat sGC monoclonal cell line (Rattus norvegicus, UniProt P19686+P20595); assay: Effect on recombinant guanylate cyclase reporter cell line (CHO-K1-Rat sGC, Cisbio cGMP HTRF); assay type: cell-based; conditions: activating soluble guanylate cyclase
T1 construct: expressed in transfected cells; host or cells: CHO-K1
T1 sequence (P19686 1-690): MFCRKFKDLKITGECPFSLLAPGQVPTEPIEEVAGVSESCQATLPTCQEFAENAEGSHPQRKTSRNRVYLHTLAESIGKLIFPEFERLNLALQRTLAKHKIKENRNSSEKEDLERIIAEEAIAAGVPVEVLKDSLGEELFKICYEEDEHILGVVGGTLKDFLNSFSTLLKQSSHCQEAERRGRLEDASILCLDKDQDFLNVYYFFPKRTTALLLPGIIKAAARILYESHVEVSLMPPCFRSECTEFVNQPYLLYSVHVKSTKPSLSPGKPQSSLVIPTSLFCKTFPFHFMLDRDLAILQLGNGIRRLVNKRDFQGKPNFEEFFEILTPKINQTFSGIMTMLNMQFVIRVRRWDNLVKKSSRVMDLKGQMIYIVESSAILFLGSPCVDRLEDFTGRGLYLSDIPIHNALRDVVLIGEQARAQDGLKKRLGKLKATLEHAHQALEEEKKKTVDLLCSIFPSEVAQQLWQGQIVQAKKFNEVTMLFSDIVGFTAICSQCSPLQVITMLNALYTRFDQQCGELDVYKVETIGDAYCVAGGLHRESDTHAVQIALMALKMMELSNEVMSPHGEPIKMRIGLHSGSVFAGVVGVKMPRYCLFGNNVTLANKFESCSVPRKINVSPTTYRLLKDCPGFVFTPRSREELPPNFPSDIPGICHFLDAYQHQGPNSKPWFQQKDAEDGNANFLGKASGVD
T1 sequence (P20595 1-619): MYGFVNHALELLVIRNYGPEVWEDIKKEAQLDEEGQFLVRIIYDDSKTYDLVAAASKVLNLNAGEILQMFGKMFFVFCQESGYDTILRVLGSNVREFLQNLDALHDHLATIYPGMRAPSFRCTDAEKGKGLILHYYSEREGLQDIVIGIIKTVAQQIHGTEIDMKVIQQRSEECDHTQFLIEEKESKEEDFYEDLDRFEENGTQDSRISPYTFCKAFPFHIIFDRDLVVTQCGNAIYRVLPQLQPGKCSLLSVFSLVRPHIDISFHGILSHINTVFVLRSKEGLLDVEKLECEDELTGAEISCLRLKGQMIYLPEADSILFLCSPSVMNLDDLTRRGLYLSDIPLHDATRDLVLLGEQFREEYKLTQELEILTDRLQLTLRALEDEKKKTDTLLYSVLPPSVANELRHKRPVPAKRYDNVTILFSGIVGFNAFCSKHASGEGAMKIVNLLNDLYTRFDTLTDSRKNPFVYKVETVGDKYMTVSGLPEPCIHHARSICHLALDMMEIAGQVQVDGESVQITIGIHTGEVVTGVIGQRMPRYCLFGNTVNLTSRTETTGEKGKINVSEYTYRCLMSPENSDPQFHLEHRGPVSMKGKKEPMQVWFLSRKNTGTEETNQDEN
Source text: Transfection of Soluble Guanylate Cyclase (sGC) gene into CHO-K1 cells and selection of cells with stably and highly expressed sGC: Rat sGCα1 and Rat sGCβ1 Genes were synthesized, and then pcDNA3.1(+)-rat sGCα1 and pcDNA3.1/Hygro (+)-rat sGCβ1 plasmid were constructed; the plasmid was co-transfected into CHO-K1 cells, and a positive clone cell line stably expressing CHO-K1-Rat sGC was selected using the Cisbio cGMP HTRF assay kit.
The activity of the compound on the CHO-K1-Rat sGC monoclonal cell line was determined: The CHO-K1-Rat sGC monoclonal cell line was cultured, and used for test operation at degree of fusion of about 70% to 90%. The cells were resuspended in complete medium after TrypLE digestion; the cells were inoculated in a 384-well (low volume tissues culture treated) cell culture plate at a seeding density of 7500/well in 25 μL of complete medium and incubated at 37° C. in 5% CO2 atmosphere for 20 hours; the test compounds were dissolved and dilute with DMSO to give 10 concentration gradients (2× working concentration); 384-well cell culture plates were centrifugated (200 g) for 3 seconds by inversion at RT, medium was removed; The test compounds in each different concentration gradient and corresponding reagent were added into each cell well according to the detection process of Cisbio cGMP HTRF assay kit. The data were collected with Envision HTRF detector and the EC50 value of each compound in activating soluble guanylate cyclase was calculated.

[2] = Pharmacokinetics in male SD rats after intravenous and oral administration; assay type: in vivo; conditions: for F: po 5 mg/kg versus iv 1 mg/kg; for AUC(0-t) / Cmax / Tmax / clearance / half-life / Vd: rat, plasma; for Vd: read-out: Vss
Experimental: Preparation of test compound solution: The test compound was formulated with 5% dimethylsulfoxide, 5% Solutol HS 15 and 90% physiological saline to give solution, which was used for oral and intravenous administration.
Male SD rats weighing 190-250 g were randomly divided into two groups, each group had three members; one group received test compound at a dose of 1.0 mg/kg by intravenous injection, the other group received test compound at a dose of 2.5 or 5.0 mg/kg by oral. After dosing, blood samples were collected at time points of 0.0833, 0.25, 0.5, 1.0, 2.0, 4.0, 7.0 and 24 h. Standard curve was plotted based on concentrations of the samples in a suitable range, the concentrations of test compounds in plasma samples were determined by using AB SCIEX API4000 LC-MS/MS in MRM mode. Pharmacokinetic parameters were calculated according to drug concentration-time curve using a noncompartmental method by WinNonLin 6.3 software.

hERG potassium channel = target: T2, hERG potassium channel (Homo sapiens, UniProt Q12809); assay: Inhibition of hERG potassium channel, manual patch clamp in HEK293 cells; assay type: cell-based; conditions: hERG tail current; HEK293 cells overexpressing hERG; whole cell patch clamp; 22-24° C.
T2 construct: expressed in transfected cells; host or cells: HEK293
T2 sequence (Q12809 whole entry): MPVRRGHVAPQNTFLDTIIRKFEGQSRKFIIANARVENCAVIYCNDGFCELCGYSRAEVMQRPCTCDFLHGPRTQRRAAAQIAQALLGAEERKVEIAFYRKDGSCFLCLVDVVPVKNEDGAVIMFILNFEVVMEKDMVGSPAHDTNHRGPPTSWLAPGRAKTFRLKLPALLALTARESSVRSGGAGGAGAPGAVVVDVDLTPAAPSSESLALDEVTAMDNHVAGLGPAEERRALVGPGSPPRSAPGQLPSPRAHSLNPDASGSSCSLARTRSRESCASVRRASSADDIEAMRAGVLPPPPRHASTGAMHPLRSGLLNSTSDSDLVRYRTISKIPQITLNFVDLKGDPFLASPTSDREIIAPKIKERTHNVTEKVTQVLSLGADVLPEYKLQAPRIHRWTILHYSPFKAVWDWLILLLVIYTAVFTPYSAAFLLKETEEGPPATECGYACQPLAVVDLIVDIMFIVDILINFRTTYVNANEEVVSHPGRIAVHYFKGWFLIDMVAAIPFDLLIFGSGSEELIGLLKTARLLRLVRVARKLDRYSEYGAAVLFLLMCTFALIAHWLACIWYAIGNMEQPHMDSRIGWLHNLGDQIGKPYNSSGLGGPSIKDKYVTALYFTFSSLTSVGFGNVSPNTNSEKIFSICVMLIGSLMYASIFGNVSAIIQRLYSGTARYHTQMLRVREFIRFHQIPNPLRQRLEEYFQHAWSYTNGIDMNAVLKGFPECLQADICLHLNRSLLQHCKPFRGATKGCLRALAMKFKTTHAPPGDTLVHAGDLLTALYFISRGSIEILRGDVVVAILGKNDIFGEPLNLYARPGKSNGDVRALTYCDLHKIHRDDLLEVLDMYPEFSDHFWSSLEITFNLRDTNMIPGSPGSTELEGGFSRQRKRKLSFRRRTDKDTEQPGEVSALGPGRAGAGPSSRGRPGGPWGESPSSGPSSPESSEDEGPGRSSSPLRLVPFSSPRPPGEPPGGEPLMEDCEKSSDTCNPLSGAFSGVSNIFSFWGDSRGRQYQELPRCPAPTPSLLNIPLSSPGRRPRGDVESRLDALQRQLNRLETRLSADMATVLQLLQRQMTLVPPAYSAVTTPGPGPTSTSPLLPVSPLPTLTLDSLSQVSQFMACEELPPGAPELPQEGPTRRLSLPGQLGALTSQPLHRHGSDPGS
Experimental: Each compound was weighed and dissolved in DMSO and diluted with DMSO to a serial solution (30, 10, 3.3, 1.1, 0.37 mM). The above serial solutions were diluted to 1000-fold with the extracellular fluid to prepare test solutions (final concentration was 30, 10, 3.3, 1.1, 0.37 μM respectively).
The HEK293 cells that overexpressed the hERG potassium channel were cultured in a 37° C., 5% CO2 incubator, and the culture medium contained DMEM, 15% fetal bovine serum, and 1% penicillin-streptomycin. When the cell density reached 80% of the culture plate, the cells were digested with trypsin/EDTA and transferred to a centrifuge tube, centrifuged at 1000 rpm for 3 minutes, then supernatant was discarded, and the cell culture medium was added. The cells were mixed uniformly by gently blowing and beating. […]
The whole cell recording mode was used to record the channel current in the experiment. Firstly, the extracellular fluid was perfused (approximately 2 mL per minute) and the data were continuous recorded, and the current was kept steady (the current decay was less than 5% in 5 minutes). […] The extracellular fluid containing the test compound was then perfused and the data were continuous recorded until the compound's inhibitory effect on the hERG current reached a steady state, at this time point the peak value of tail current was the current value after dosing. […]

| Structure (SMILES) | EC50 [1] | F [2] | AUC(0-t) ([2]; iv, 1 mg/kg) | Cmax ([2]; iv, 1 mg/kg) | Tmax ([2]; iv, 1 mg/kg) | clearance ([2]; iv, 1 mg/kg) | half-life ([2]; iv, 1 mg/kg) | Vd ([2]; iv, 1 mg/kg) | AUC(0-t) ([2]; po, 5 mg/kg) | Cmax ([2]; po, 5 mg/kg) | Tmax ([2]; po, 5 mg/kg) | half-life ([2]; po, 5 mg/kg) | IC50 (hERG potassium channel) |
| --- | --- | --- | --- | --- | --- | --- | --- | --- | --- | --- | --- | --- | --- |
| COC(=O)N(C)c1c(N)nc(-c2nn(Cc3ccccc3F)c3c(F)cc(F)cc23)nc1N [Example 2, methyl (4,6-diamino-2-(5,7-difluoro-1-(2-fluorobenzyl)-1H-indazol-3-yl)pyrimidin-5-yl)(methyl)carbamate] | 220 nM | 138.6% | 2020 ng·h/mL | 680 ng/mL | 0.083 h | 6.16 mL/min/kg | 3.7 h | 1.88 L/kg | 14000 ng·h/mL | 1130 ng/mL | 2 h | 3.61 h |  |
| COC(=O)Nc1c(N)nc(-c2nn(Cc3ccccc3F)c3cc(F)ccc23)nc1N [Example 5, methyl (4,6-diamino-2-(6-fluoro-1-(2-fluorobenzyl)-1H-indazol-3-yl)pyrimidin-5-yl)carbamate] |  | 93.4% | 10300 ng·h/mL | 2820 ng/mL | 0.083 h | 1.59 mL/min/kg | 4.49 h | 0.483 L/kg | 39700 ng·h/mL | 2690 ng/mL | 3.5 h | 10.9 h | > 30000 nM |
| COC(=O)N(C)c1c(N)nc(-c2nn(Cc3ccccc3F)c3cc(F)ccc23)nc1N [Example 6, methyl (4,6-diamino-2-(6-fluoro-1-(2-fluorobenzyl)-1H-indazol-3-yl)pyrimidin-5-yl)(methyl)carbamate] | 230 nM | 135.3% | 2700 ng·h/mL | 1310 ng/mL | 0.083 h | 6.18 mL/min/kg | 1.57 h | 1.07 L/kg | 18300 ng·h/mL | 2480 ng/mL | 1.33 h | 2.98 h |  |
| COC(=O)N(C)c1c(N)nc(-c2nn(Cc3ccccc3F)c3c(F)cccc23)nc1N [Example 11, methyl (4,6-diamino-2-(7-fluoro-1-(2-fluorobenzyl)-1H-indazol-3-yl)pyrimidin-5-yl)(methyl)carbamate] | 82 nM | 107.3% | 1220 ng·h/mL | 834 ng/mL | 0.083 h | 13.4 mL/min/kg | 1.37 h | 1.35 L/kg | 6580 ng·h/mL | 1080 ng/mL | 1.67 h | 2.45 h |  |
| Nc1nc(-c2nn(Cc3ccccc3F)c3c(F)cccc23)nc(N)c1N1CCCS1(=O)=O [Example 13, 2-(4,6-diamino-2-(7-fluoro-1-(2-fluorobenzyl)-1H-indazol-3-yl)pyrimidin-5-yl)isothiazolidine 1,1-dioxide] | 36 nM | 109.8% | 921 ng·h/mL | 778 ng/mL | 0.083 h |  | 0.916 h | 6.38 L/kg | 5010 ng·h/mL | 1170 ng/mL | 1.67 h | 1.57 h |  |
| Nc1nc(-c2nn(Cc3ccccc3F)c3c(F)cccc23)nc(N)c1N1CCOC1=O [Example 15, 3-(4,6-diamino-2-(7-fluoro-1-(2-fluorobenzyl)-1H-indazol-3-yl)pyrimidin-5-yl)oxazolidin-2-one] | 300 nM | 86% | 2060 ng·h/mL | 981 ng/mL | 0.083 h | 7.91 mL/min/kg | 5.56 h | 2.03 L/kg | 8860 ng·h/mL | 768 ng/mL | 3 h | 3.13 h |  |
